# Source: patent US20230339878A1, “SLC26A3 INHIBITORS AND USE THEREOF” (THE REGENTS OF THE UNIVERSITY OF CALIFORNIA, priority 2018, published 2023)
# “Also recorded” adds a separate entry of the source.
# Tests used:
# [1] = molecular target: T1, slc26a3 (Mus musculus, UniProt Q9WVC8); assay: slc26a3-mediated Cl-/HCO3- exchange, BCECF cytoplasmic pH in slc26a3-expressing FRT cells; assay type: cell-based, murine; conditions: increase in cytoplasmic pH, read-out: IC50 for inhibition of slc26a3-mediated Cl-/HCO3- exchange
# T1 construct: host or cells: Fischer rat thyroid (FRT) cells expressing YFP, clonal line FRT-YFP-slc26a3
# T1 sequence (Q9WVC8 1-757): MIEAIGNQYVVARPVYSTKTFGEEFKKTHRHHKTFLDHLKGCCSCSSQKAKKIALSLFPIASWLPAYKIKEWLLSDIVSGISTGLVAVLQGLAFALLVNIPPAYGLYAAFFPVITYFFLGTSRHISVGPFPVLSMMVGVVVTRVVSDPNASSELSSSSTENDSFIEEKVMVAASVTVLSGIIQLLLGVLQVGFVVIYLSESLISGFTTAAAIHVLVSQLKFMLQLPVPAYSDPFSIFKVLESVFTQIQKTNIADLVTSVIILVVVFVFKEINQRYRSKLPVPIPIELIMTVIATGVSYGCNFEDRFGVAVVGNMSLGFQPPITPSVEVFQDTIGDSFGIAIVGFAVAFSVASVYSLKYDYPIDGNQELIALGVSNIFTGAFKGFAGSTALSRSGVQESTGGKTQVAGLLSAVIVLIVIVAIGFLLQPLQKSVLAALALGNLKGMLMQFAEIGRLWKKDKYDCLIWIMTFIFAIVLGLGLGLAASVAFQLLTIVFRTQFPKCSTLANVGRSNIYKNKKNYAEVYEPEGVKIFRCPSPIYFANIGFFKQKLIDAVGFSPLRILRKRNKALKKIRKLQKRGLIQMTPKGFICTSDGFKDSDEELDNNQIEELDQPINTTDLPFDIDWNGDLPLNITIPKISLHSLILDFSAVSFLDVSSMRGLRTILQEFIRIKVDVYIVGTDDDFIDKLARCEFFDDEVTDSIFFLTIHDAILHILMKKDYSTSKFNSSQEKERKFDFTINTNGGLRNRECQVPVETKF
# Protocol: Concentration-dependence measurements for inhibition of slc26a3-mediated exchange of Cl^- and HCO3^-, the physiologically relevant activity of slc26a3, was measured using slc26a3-expressing FRT cells labeled with BCECF as a cytoplasmic pH sensor. Labeled cells were initially incubated in a Cl^--containing HCO3^- buffered solution, and HCO3^- influx / Cl^- efflux with cytoplasmic alkalinization was produced by addition of a gluconate-containing HCO3^- buffered solution. […] Concentration-dependence measurements for inhibition of slc26a3-mediated Cl^-/SCN^- exchange gave an IC50 of ~0.3 µM (FIG. 4B).
# YFP-based assays of CFTR, pendrin and TMEM16A were as described. HEK cells transfected to express YFP and SLC26A3, slc26a6 or slc26a9 were functionally assayed using a Cl^-/I^- exchange protocol. Assays of Cl^-/HCO3^- exchange were done using BCECF as an intracellular pH indicator as described for pendrin. Short-circuit current (ISC) measurements in well-differentiated HBE cell cultures were done using techniques known in the art.
# [2] = system: mouse mid-jejunal closed loops; assay: Closed mid-jejunal loop fluid absorption in mice; assay type: in vivo; conditions: 10 µM intraluminal, 30 min
# Protocol: Female CD1 mice (age 8-10 weeks) were given free access to Pedialyte (per liter: Na^+ 45 mEq, Cl^- 35 mEq, K^+ 20 mEq, dextrose 25 g; Abbott, Abbot Park, IL) but not solid food for 48 h before experiments. Mice were treated with 500 µL mineral oil once a day rectally (last dose 12 h before surgeries) during this period to evacuate the colon. Closed intestinal loops were isolated as described. Mice were anesthetized with isoflurane and body temperature was maintained during surgery at 36-38° C. using a heating pad. A small abdominal incision was made to expose the distal colon, and one closed distal colonic loop (length 1.5-2 cm) was isolated with sutures in each mouse. Loops were injected with 100 µL phosphate-buffered saline (PBS, pH: 7.4, in mM: 137 NaCl, 2.7 KCl, 8 Na2HPO4, 1.8 KH2PO4, 1 CaCl2, 0.5 MgCl2) without and with 10 µM Compound A1 and/or 10 µM tenapanor (MedChemExpress, Monmouth Junction, NJ). The abdominal incision was closed with sutures, and mice were allowed to recover from anesthesia. Colonic loops were removed at 0 and 60 min (in separate mice) and loop length and weight were measured to quantify fluid absorption. Luminal fluid was emptied with a syringe and pH was measured immediately using AB15 pH Meter (Thermo Fisher Scientific, South San Francisco, CA). In separate studies, mid-jejunal loops (length 2-3 cm, 3-4 loops per mouse) were isolated as described above, injected with 100 µL PBS without or with 10 µM Compound A1 and/or 10 µM tenapanor, and excised at 0 and 30 min to measure loop length and weight.
compound,measurement,setting,value
Cc1c(CC(=O)O)c(=O)oc2c(C)c(OCc3cccc(Br)c3)ccc12 [Compound A1],IC50,[1],~100 nM
same,"loop weight/length ratio (fluid absorption), mid-jejunal loops",[2],did not produce significant changes; also recorded: not in jejunal loops
same,"luminal fluid pH, mid-jejunal loops",[2],did not alter acidification
